Results from BindingDB's records for doi:10.1021/jm801354e (University of Illinois At Chicago, 2009).
Counter-ions that a name gives are not always drawn.

What was measured:
[1] = target: T1, 5-hydroxytryptamine receptor 2C (Homo sapiens, UniProt P28335); test: Agonist activity at human 5HT2C receptor expressed in HEK293 cells assessed as calcium flux by FLIPR assay
T1 sequence (P28335 whole entry): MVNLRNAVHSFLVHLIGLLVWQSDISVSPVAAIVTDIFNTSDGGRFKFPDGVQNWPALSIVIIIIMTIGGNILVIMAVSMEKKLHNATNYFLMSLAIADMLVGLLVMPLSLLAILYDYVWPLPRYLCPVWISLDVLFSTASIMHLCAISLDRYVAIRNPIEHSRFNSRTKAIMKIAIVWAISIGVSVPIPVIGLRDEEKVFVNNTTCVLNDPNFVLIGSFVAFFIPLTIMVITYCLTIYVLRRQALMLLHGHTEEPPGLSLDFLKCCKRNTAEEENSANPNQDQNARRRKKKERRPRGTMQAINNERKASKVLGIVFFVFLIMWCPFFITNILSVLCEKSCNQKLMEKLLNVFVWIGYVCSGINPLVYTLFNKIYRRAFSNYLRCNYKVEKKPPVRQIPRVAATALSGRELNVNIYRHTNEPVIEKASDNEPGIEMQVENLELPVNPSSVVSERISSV

[2] = target: T2, 5-hydroxytryptamine receptor 2A (Homo sapiens, UniProt P28223); test: Agonist activity at human 5HT2A receptor expressed in HEK293 cells assessed as calcium flux by FLIPR assay
T2 sequence (P28223 whole entry): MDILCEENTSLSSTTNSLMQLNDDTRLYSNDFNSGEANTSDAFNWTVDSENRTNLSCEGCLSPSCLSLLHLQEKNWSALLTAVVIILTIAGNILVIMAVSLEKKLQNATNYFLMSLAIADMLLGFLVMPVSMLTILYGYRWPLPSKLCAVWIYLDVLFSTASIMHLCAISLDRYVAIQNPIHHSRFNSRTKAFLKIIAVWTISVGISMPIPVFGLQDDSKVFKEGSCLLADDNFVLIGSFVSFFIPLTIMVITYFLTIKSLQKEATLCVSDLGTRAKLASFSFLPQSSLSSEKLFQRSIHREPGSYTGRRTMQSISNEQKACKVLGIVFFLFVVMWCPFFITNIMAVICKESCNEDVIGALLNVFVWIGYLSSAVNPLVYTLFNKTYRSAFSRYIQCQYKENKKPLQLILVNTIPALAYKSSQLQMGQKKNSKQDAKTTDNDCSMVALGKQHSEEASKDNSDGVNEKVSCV

[3] = target: T3, 5-hydroxytryptamine receptor 2B (Homo sapiens, UniProt P41595); test: Agonist activity at human 5HT2B receptor expressed in HEK293 cells assessed as calcium flux by FLIPR assay
T3 sequence (P41595 whole entry): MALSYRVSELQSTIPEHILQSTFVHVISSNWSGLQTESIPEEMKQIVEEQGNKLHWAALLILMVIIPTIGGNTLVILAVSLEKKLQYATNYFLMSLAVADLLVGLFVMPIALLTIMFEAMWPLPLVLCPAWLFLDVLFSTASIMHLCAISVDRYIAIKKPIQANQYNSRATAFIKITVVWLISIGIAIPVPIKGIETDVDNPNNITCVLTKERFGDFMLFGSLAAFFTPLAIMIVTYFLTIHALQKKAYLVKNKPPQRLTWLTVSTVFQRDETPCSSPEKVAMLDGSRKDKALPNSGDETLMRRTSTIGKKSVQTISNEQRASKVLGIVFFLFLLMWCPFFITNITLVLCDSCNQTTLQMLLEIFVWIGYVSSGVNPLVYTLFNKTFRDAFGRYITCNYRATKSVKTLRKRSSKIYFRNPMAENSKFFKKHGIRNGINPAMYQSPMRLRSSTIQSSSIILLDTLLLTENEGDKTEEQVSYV

[4] = target: T3, 5-hydroxytryptamine receptor 2B; test: Displacement of [3H]LSD from human 5HT2B receptor
[5] = target: Sodium-dependent noradrenaline transporter (Homo sapiens, UniProt P23975); test: Displacement of [3H]nisoxetine from NET
Sequence of Sodium-dependent noradrenaline transporter (P23975 whole entry): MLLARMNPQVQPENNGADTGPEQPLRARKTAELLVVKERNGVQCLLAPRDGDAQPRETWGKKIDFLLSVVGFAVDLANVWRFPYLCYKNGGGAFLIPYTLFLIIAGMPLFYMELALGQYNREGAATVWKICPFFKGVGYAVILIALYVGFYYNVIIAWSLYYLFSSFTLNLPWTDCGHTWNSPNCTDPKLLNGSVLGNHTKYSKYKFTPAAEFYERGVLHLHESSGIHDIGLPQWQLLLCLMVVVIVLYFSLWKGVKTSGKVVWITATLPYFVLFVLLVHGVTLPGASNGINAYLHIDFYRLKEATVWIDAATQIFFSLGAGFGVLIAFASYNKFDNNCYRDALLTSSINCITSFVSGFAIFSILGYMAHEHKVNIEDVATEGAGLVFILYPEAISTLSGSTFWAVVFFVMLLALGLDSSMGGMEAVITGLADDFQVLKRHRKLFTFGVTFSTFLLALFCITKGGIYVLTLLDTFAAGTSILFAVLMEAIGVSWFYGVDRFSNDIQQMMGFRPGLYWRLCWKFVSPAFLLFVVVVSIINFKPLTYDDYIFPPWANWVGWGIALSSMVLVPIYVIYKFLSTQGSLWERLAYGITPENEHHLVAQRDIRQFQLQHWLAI

[6] = target: Sodium-dependent serotonin transporter (Homo sapiens, UniProt P31645); test: Displacement of [3H]citalopram from SERT
Sequence of Sodium-dependent serotonin transporter (P31645 whole entry): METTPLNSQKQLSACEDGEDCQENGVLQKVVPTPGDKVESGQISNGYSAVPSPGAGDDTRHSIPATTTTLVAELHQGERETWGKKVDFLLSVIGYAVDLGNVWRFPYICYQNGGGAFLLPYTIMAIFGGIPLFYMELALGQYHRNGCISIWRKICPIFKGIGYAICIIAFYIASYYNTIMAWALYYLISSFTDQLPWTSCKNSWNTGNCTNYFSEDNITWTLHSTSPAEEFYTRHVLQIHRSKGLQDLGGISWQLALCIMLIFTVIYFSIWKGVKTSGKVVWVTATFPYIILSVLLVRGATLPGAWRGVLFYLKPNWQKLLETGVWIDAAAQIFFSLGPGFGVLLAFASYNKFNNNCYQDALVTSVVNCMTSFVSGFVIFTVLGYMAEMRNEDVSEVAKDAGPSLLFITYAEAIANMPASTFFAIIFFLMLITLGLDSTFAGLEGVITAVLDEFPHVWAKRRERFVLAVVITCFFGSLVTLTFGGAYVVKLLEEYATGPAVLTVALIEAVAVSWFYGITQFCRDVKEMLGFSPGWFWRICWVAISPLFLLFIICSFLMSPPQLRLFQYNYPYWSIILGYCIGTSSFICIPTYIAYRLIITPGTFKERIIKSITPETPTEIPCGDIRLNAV

[7] = target: Sodium-dependent dopamine transporter (Homo sapiens, UniProt Q01959); test: Displacement of [3H]WIN-35428 from DAT
Sequence of Sodium-dependent dopamine transporter (Q01959 whole entry): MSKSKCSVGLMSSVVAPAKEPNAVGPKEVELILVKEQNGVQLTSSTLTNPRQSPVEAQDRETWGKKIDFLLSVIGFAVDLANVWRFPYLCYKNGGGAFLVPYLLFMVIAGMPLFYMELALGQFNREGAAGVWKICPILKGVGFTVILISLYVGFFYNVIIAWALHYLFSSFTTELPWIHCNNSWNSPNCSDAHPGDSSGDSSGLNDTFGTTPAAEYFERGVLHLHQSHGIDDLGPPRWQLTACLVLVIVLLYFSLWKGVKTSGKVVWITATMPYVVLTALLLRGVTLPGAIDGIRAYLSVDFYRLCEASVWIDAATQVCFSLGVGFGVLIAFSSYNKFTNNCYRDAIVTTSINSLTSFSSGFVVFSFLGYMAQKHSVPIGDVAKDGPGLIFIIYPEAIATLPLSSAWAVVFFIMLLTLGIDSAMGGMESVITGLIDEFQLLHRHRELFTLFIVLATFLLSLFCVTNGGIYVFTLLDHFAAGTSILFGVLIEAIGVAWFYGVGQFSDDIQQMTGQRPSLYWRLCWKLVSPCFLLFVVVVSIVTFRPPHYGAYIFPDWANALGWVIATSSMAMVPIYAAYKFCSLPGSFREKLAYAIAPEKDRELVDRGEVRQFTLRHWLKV

[8] = target: T1, 5-hydroxytryptamine receptor 2C; test: Displacement of [3H]mesulergine from 5HT2C receptor
[9] = target: T2, 5-hydroxytryptamine receptor 2A; test: Displacement of [3H]ketanserin from human 5HT2A receptor

EC50 [1]	EC50 [2]	EC50 [3]	Structure (SMILES)	also measured
10 nM	1890 nM	59 nM	NC[C@H]1C[C@@H]1c1cccc(Cl)c1 (relative stereo) [trans-[2-(3-Chlorophenyl)cyclopropyl]methylamine Hydrochloride]	
6 nM	235 nM	4.9 nM	Cc1cc([C@H]2C[C@@H]2CN)ccc1F (relative stereo) [trans-[2-(4-Fluoro-3-methylphenyl)cyclopropyl]methylamine Hydrochloride]	
135 nM	1930 nM	37 nM	Cc1ccc([C@H]2C[C@@H]2CN)cc1 (relative stereo) [trans-[2-(4-Methylphenyl)cyclopropyl]methylamine Hydrochloride]	
128 nM	774 nM	459 nM	NC[C@H]1C[C@@H]1c1ccc(Cl)cc1F (relative stereo) [trans-[2-(4-Chloro-2-fluorophenyl)cyclopropyl]methylamine Hydrochloride]	
26 nM	2170 nM	199 nM	COc1ccccc1[C@H]1C[C@@H]1CN (relative stereo) [trans-[2-(2-Methoxyphenyl)cyclopropyl]methylamine Hydrochloride]	
30 nM	1480 nM	77 nM	NC[C@H]1C[C@@H]1c1cccc(C(F)(F)F)c1 (relative stereo) [trans-[2-(3-Trifluoromethylphenyl)cyclopropyl]methylamine Hydrochloride]	
29 nM		69 nM	NC[C@H]1C[C@@H]1c1ccccc1F [trans-[2-(2-Fluorophenyl)cyclopropyl]methylamine Hydrochloride]	
3.5 nM	726 nM	7 nM	Cc1cccc(Cl)c1[C@H]1C[C@@H]1CN (relative stereo) [trans-[2-(2-Chloro-6-methylphenyl)cyclopropyl]methylamine Hydrochloride]	
138 nM	> 1000 nM	2740 nM	NC[C@H]1C[C@@H]1c1ccc(Br)cc1 (relative stereo) [trans-[2-(4-Bromophenyl)cyclopropyl]methylamine Hydrochloride]	
35 nM	2390 nM	12 nM	Cc1ccc([C@H]2C[C@@H]2CN)cc1C (relative stereo) [trans-[2-(3,4-Dimethylphenyl)cyclopropyl]methylamine Hydrochloride]	
76 nM	4480 nM	404 nM	NC[C@H]1C[C@@H]1c1ccc(Cl)cc1 (relative stereo) [trans-[2-(4-Chlorophenyl)cyclopropyl]methylamine Hydrochloride]	
87 nM	> 1000 nM	3340 nM	NC[C@H]1C[C@@H]1c1c(F)cccc1F (relative stereo) [trans-[2-(2,6-Difluorophenyl)cyclopropyl]methylamine Hydrochloride]	
23 nM	1610 nM	53 nM	Cc1ccccc1[C@H]1C[C@@H]1CN (relative stereo) [trans-[2-(2-Methylphenyl)cyclopropyl]methylamine Hydrochloride]	
97 nM	465 nM	116 nM	Cc1ccc([C@H]2C[C@@H]2CN)c(Br)c1 (relative stereo) [trans-[2-(2-Bromo-4-methylphenyl)cyclopropyl]methylamine Hydrochloride]	
99 nM	> 5000 nM	366 nM	NC[C@H]1C[C@@H]1c1cccc(F)c1F (relative stereo) [trans-[2-(2,3-Difluorophenyl)cyclopropyl]methylamine Hydrochloride]	
4.8 nM	585 nM	65 nM	Cc1cccc([C@H]2C[C@@H]2CN)c1 (relative stereo) [trans-[2-(3-Methylphenyl)cyclopropyl]methylamine Hydrochloride]	Ki [4]: 85 nM; Ki [5]: > 10000 nM; Ki [6]: 5440 nM; Ki [7]: 5400 nM; Ki [8]: 268 nM; Ki [9]: 1850 nM
11 nM	349 nM	14 nM	NC[C@H]1C[C@@H]1c1cccc(Cl)c1Cl (relative stereo) [trans-[2-(2,3-Dichlorophenyl)cyclopropyl]methylamine Hydrochloride]	

EC50 [1]	EC50 [2]	EC50 [3]	Structure (SMILES)	also measured
42 nM	547 nM	415 nM	NC[C@H]1C[C@@H]1c1ccc(F)cc1F [trans-[2-(2,4-Difluorophenyl)cyclopropyl]methylamine Hydrochloride]	
9 nM	578 nM	28 nM	NC[C@H]1C[C@@H]1c1ccc(F)c(F)c1 (relative stereo) [trans-[2-(3,4-Difluorophenyl)cyclopropyl]methylamine Hydrochloride]	
13 nM	330 nM	116 nM	Cc1ccc(Cl)c([C@H]2C[C@@H]2CN)c1F [trans-[2-(6-Chloro-2-fluoro-3-methylphenyl)cyclopropyl]methylamineHydrochloride]	
18 nM	51 nM	83 nM	NC[C@H]1C[C@@H]1c1ccc(Cl)cc1Cl (relative stereo) [trans-[2-(2,4-Dichlorophenyl)cyclopropyl]methylamine Hydrochloride]	
5700 nM			c1ccc(CNC[C@H]2C[C@@H]2c2ccccc2)cc1 (relative stereo) [trans-N-Benzyl-(2-phenylcyclopropylmethyl)amine]	
7 nM	360 nM	8.4 nM	Cc1cccc([C@H]2C[C@@H]2CN)c1C (relative stereo) [trans-[2-(2,3-Dimethylphenyl)cyclopropyl]methylamine Hydrochloride]	
634 nM		> 10000 nM	CNC[C@H]1C[C@@H]1c1ccccc1 (relative stereo) [trans-N-Methyl-(2-phenylcyclopropylmethyl)amine]	
2900 nM		510 nM	NC[C@H]1C[C@@H]1c1ccc2ccccc2c1 (relative stereo) [trans-(2-Naphthalen-2-ylcyclopropyl)methylamine Hydrochloride]	
3.3 nM	437 nM	3.6 nM	NC[C@H]1C[C@@H]1c1cccc(F)c1 (relative stereo) [trans-[2-(3-Fluorophenyl)cyclopropyl]methylamine Hydrochloride]	
902 nM			COc1ccc([C@H]2C[C@@H]2CN)cc1 (relative stereo) [trans-[2-(4-Methoxyphenyl)cyclopropyl]methylamine Hydrochloride]	
779 nM		> 1000 nM	NC[C@H]1C[C@@H]1c1ccc(C(F)(F)F)cc1 (relative stereo) [trans-[2-(4-Trifluoromethylphenyl)cyclopropyl]methylamine Hydrochloride]	
49 nM		350 nM	NC[C@H]1C[C@@H]1c1ccccc1C(F)(F)F (relative stereo) [trans-[2-(2-Trifluoromethylphenyl)cyclopropyl]methylamine Hydrochloride]	
5.1 nM	168 nM	32 nM	NC[C@H]1C[C@@H]1c1ccccc1Cl (relative stereo) [trans-[2-(2-Chlorophenyl)cyclopropyl]methylamine Hydrochloride]	
3.3 nM	247 nM	5.5 nM	NC[C@H]1C[C@@H]1c1cccc(O)c1 (relative stereo) [trans-[2-(3-Hydroxyphenyl)cyclopropyl]methylamine Hydrochloride]	
16 nM	613 nM	75 nM	COc1cccc([C@H]2C[C@@H]2CN)c1 (relative stereo) [trans-[2-(3-Methoxyphenyl)cyclopropyl]methylamine Hydrochloride]	
14 nM	1680 nM	141 nM	NC[C@H]1C[C@@H]1c1cccc(Br)c1 (relative stereo) [trans-[2-(3-Bromophenyl)cyclopropyl]methylamine Hydrochloride]	
161 nM	513 nM	492 nM	NC[C@H]1C[C@@H]1c1ccccc1O (relative stereo) [trans-[2-(2-Hydroxyphenyl)cyclopropyl]methylamine Hydrochloride]	

Structure (SMILES)	EC50 [1]	EC50 [2]	EC50 [3]	also measured
NC[C@H]1C[C@H]1c1ccccc1 (racemic) [(+/-)-Cis-(2-Phenylcyclopropyl)methylamineHydrochloride]	3020 nM		> 10000 nM	
NC[C@H]1C[C@@H]1c1ccc(F)cc1Cl (relative stereo) [trans-[2-(2-Chloro-4-fluorophenyl)cyclopropyl]methylamine Hydrochloride]	3 nM	91 nM	22 nM	Ki [4]: 16 nM; Ki [5]: > 10000 nM; Ki [6]: 1040 nM; Ki [7]: > 10000 nM; Ki [8]: 203 nM; Ki [9]: 254 nM
